In US7045532B2 (Millennium Pharmaceuticals, Inc., priority 1999, dated 2006) one finds Ki data, which are given here for 22 compounds.

One assay addresses T1, Carboxypeptidase A (Bos taurus, UniProt P00730).
T1 sequence (P00730 111-419): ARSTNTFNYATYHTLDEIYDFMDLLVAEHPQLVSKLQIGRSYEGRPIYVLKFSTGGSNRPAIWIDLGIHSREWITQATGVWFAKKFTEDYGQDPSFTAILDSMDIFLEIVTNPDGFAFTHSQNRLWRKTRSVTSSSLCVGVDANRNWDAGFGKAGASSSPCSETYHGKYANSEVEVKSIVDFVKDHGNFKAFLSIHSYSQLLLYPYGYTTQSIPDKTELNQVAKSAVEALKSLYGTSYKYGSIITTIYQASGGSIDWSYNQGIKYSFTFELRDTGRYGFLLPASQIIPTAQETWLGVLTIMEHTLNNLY
Description: Carboxypeptidase A activity assay. The assay is classed as biochemical. The settings on record: Ki class; compounds tested in 5% DMSO, 12 concentrations. The protocol: Carboxypeptidase A activity was measured using a literature assay (Holmquist and Riordan, “Carboxypeptidase A,” Methods of Enzymatic Analysis (1984) p. 44–60). The assay was adapted to a 96 well format by adjusting to a 300 μL assay volume and using ultra-thin bottom plates (Costar/Corning) read at 328 nm. The assay was stopped using EDTA.
The activity of the test compounds was investigated using the procedure outlined above. The compounds were tested in 5% DMSO. Enzyme activity was measured at 12 compound concentrations. The Ki was calculated by using Ki=Kiapp/(1+[S]/Km).
To determine whether a test compound is capable of modulating carboxypeptidase A's ability to cleave a substrate the method described in Holmquist and Riordan, Carboxypeptidase A, p44–60, Peptidase and Their Inhibitors in Method of Enzymatic Analysis (1984), may be used.
The assay may be adapted to a 96 well format by adjusting to a 300 μl assay volume and using ultrathin bottom plates (Costar/Coming) read at 328 nm with a final assay volume of 300 μl. The assay may be stopped using EDTA.

The next assay deals with T2, ACE (Sigma, A2580) (Sus scrofa, UniProt F1RRW5).
T2 construct: ACE from porcine kidney; purchased Sigma A2580; host or cells: porcine kidney
T2 sequence (F1RRW5 34-1309): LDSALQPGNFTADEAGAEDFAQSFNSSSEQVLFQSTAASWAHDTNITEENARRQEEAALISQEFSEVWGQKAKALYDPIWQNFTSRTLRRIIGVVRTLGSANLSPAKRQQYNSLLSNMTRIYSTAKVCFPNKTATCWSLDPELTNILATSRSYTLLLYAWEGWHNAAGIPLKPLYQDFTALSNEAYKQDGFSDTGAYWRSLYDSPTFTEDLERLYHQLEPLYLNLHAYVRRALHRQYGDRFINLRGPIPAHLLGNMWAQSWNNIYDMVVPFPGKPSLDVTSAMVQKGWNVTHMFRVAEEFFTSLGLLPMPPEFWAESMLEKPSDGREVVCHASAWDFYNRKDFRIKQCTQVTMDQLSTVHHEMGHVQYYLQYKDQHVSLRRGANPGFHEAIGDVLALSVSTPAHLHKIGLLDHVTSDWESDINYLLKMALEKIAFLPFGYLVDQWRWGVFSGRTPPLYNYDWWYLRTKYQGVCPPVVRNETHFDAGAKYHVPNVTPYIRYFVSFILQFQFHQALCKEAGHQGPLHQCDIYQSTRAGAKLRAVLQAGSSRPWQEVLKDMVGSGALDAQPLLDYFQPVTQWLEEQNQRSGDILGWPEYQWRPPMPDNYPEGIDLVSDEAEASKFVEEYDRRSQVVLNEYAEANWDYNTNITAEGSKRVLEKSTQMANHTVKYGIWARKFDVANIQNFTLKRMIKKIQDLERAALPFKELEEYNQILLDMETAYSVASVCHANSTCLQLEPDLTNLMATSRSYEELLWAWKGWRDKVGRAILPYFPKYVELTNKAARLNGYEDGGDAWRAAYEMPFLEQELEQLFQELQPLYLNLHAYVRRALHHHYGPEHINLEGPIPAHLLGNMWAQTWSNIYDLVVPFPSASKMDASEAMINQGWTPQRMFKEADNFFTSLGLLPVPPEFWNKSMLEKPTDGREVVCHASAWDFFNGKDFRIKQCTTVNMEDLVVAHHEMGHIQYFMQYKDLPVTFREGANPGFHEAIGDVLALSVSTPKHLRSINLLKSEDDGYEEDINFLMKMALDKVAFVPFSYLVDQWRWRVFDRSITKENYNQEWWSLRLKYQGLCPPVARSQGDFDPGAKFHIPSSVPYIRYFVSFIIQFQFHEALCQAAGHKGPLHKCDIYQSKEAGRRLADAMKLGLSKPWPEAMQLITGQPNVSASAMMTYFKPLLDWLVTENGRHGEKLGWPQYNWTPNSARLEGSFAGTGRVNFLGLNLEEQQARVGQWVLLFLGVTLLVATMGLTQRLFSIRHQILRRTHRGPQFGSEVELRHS
Description: ACE enzymatic activity assay. The assay is classed as biochemical, porcine. The note with it: Ki class; compounds tested in 5% DMSO, 12 concentrations. The protocol:
ACE (Sigma, A2580) enzymatic activity was assayed in microtiter plates using the following protocol. ACE assay buffer was made from 50 mM HEPES (Sigma), 300 mM sodium chloride (Sigma), and 0.01% Brij-35 (Pierce Chemical Co) at pH 7.5.
Reactions were mixed and incubated at 25° C. Enzymatic cleavage of the substrate is marked by a fluorescence change (excitation 330 nm, emission 415 nm).
The activity of the test compounds was investigated using the procedure outlined above. The compounds were tested in 5% DMSO. Enzyme activity was measured at 12 compound concentrations. […]. […]

The next assay deals with T3, ACE-2 (Homo sapiens, UniProt Q9BYF1).
T3 construct: a stop codon inserted after the serine immediately preceding the transmembrane domain; made in house; host or cells: CHO K1 cells (transient transfection, purified from conditioned medium)
Description: ACE-2 Competitive Substrate Assay (ACS Assay). The note with it: Ki class; compounds tested in 5% DMSO, 12 concentrations; read-out: Human ACE-2 Activity. The assay is classed as biochemical.

T3 sequence (Q9BYF1 18-740 limits assumed): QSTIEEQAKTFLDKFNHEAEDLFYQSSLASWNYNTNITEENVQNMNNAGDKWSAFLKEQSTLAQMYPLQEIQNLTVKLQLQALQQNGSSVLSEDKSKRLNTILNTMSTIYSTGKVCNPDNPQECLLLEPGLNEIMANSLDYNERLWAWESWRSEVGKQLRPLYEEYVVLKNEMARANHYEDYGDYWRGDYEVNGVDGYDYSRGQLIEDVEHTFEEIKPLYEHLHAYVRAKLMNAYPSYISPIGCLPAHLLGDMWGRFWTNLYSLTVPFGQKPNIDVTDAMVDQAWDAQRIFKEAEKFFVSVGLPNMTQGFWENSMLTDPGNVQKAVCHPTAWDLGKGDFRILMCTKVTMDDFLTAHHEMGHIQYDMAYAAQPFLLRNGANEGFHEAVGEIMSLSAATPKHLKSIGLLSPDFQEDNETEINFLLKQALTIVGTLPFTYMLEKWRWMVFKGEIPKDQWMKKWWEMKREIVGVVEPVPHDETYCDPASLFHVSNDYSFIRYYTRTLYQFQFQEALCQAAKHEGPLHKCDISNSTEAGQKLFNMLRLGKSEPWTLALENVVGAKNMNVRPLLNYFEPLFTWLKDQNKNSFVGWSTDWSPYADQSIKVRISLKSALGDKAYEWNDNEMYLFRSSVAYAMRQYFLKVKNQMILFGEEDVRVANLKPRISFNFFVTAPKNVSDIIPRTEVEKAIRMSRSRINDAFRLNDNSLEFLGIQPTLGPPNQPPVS

For “2-[2-(3-Benzyl-3H-imidazol-4-yl)-1-carboxy-ethylamino]-butync acid [GG]”, the Ki is over 50 µM on Carboxypeptidase A and over 50 µM on ACE (Sigma, A2580).

Regarding “2-[2-(3-Benzyl-3H-imidazol-4-yl)-1-carboxy-ethylamino]-butync acid [GH]”, the Ki on Carboxypeptidase A is over 50 µM; at ACE (Sigma, A2580) it was over 50 µM.

For the compound “4-Methyl-2-(3-phenethyl-ureido)-pentanoic acidmethyl ester [DG]”, the Ki is over 50 µM on Carboxypeptidase A and over 50 µM on ACE (Sigma, A2580).

Take `CC(=O)N(C(CCc1ccccc1)C(=O)O)[C@@H](CC(C)C)C(=O)O` (single isomer, unassigned) [AU, 2-[Acetyl-(1-carboxy-3-phenyl-propyl)-amino]-4-methyl-pentanoic acid]: the Ki at Carboxypeptidase A was over 50 µM; on ACE (Sigma, A2580), over 50 µM.

As for `CC(C)CC(N[C@H](Cc1c[nH]cn1)C(=O)O)C(=O)O` (single isomer, unassigned) [BJ, 2-[1-Carboxy-2-(1H-imidazol-4-yl)-ethylamino]4-methyl-pentanoic acid], the Ki is over 50 µM at Carboxypeptidase A and 10 to 50 µM on ACE (Sigma, A2580).

Take `CC(C)CC(N[C@@H](Cc1cn(Cc2ccccc2)cn1)C(=O)O)C(=O)O` (single isomer, unassigned) [DM, 2-[2-(1-Benzyl-1H-imidazol-4-yl)-1-carboxy-ethylamino]-4-methyl-pentanoic acid]: the Ki on Carboxypeptidase A was over 50 µM; on ACE (Sigma, A2580) it was over 50 µM.

As to `CCCCC(CC(=O)O)N[C@@H](Cc1c[nH]cn1)C(=O)O` (single isomer, unassigned) [ET, 3-[1-Carboxy-2-(1H-imidazol-4-yl)-ethylamino]heptanoic acid], the Ki was over 50 µM at Carboxypeptidase A and over 50 µM at ACE (Sigma, A2580).

For `CC(C)CC(N[C@@H](Cc1c[nH]cn1)C(N)=O)C(=O)O` (single isomer, unassigned) [EW, 2-[1-Carbamoyl-2-(1H-imidazol-4-yl)-ethylamino]4-methyl-pentanoic acid], the Ki at Carboxypeptidase A was over 50 µM; on ACE (Sigma, A2580), over 50 µM.

In the case of `CC(C)CC(N[C@@H](Cc1c[nH]cn1)C(=O)Nc1ccc([N+](=O)[O-])cc1)C(=O)O` (single isomer, unassigned) [EY, 2-[2-(1H-Imidazol-4-yl)-1-(4-nitro-phenylcarbamoyl)ethylamino]-4-methyl-pentanoic acid], the Ki at Carboxypeptidase A was over 50 µM; at ACE (Sigma, A2580), over 50 µM.

As to `CC(C)CC(N[C@@H](Cc1cncn1Cc1ccccc1)C(=O)O)C(=O)O` (single isomer, unassigned) [FA, 2-[2-(3-Benzyl-3H-imidazol-4-yl)-1-carboxy-ethylamino]-4-methyl-pentanoic acid], the Ki was over 50 µM on Carboxypeptidase A and over 50 µM on ACE (Sigma, A2580).

In the case of `CC(C)CC(N[C@@H](CNc1ccccc1)C(=O)O)C(=O)O` (single isomer, unassigned) [FJ, 2-(1-Carboxy-2-phenylamino-ethylamino)-4-methyl-pentanoic acid], the Ki at Carboxypeptidase A was over 50 µM; on ACE (Sigma, A2580) it was over 50 µM.

Consider `COc1ccc(CCNC(=O)[C@H](Cc2cnc[nH]2)NC(CC(C)C)C(=O)O)cc1` (single isomer, unassigned) [FL, 2-{2-(3H-Imidazol-4-yl)-1-[2-(4-methoxy-phenyl)-ethylcarbamoyl]-ethylamino}4-methyl-pentanoic acid], for which the Ki at Carboxypeptidase A was over 50 µM; on ACE (Sigma, A2580) it was over 50 µM.

For `CC(C)CC(N[C@@H](Cc1cncn1COCc1ccccc1)C(=O)NCCc1ccccc1)C(=O)O` (single isomer, unassigned) [FN, 2-[2-(3-Benzyloxymethyl-3H-imidazol-4-yl)-1-phenethylcarbamoyl-ethylamino]-4-methyl-pentanoic acid], the Ki on Carboxypeptidase A was over 50 µM; on ACE (Sigma, A2580), over 50 µM.

`CC(C)CC(N[C@H](CO)Cc1c[nH]cn1)C(=O)O` (single isomer, unassigned) [FP, 2-[1-Hydroxymethyl-2-(1H-imidazol-4-yl)-ethylamino)4-methyl-pentanoic acid]: the Ki on Carboxypeptidase A is over 50 µM; at ACE (Sigma, A2580) it was over 50 µM.

In the case of `CC(C)CC(N[C@@H](Cc1cnc[nH]1)C(=O)NCCc1ccccc1)C(=O)O` (single isomer, unassigned) [FX, 2-[2-(3H-Imidazol-4-yl)-1-phenethylcarbamoyl-ethylamino]-4-methyl-pentanoic acid], the Ki on Carboxypeptidase A was over 50 µM; at ACE (Sigma, A2580), over 50 µM.

As to `CC(C)CC(N[C@@H](Cc1cncn1Cc1cccc2ccccc12)C(=O)O)C(=O)O` (single isomer, unassigned) [GL, 2-[1-Carboxy-2-(3-naphthalen-1-ylmethyl-3Himidazol-4-yl)-ethylamino]4-methyl-pentanoic acid], the Ki at Carboxypeptidase A was 10 to 50 µM; at ACE (Sigma, A2580) it was 10 to 50 µM.

With `CC(C)CC(N[C@@H](Cc1cncn1Cc1ccc(Cl)cc1)C(=O)O)C(=O)O` (single isomer, unassigned) [GN, 2-[1-Carboxy-2-[3-(4-chloro-benzyl)-3H-imidazol-4-yl]-ethylamino]4-methyl-pentanoic acid], the Ki was over 50 µM at Carboxypeptidase A and over 50 µM on ACE (Sigma, A2580).

For the compound `CC(C)CC(N[C@@H](Cc1cncn1Cc1ccc(C(=O)O)cc1)C(=O)O)C(=O)O` (single isomer, unassigned) [GP, 4-[5-[2-Carboxy-2-(1-carboxy-3-methyl-butylamino)-ethyl]-imidazol-1-ylmethyl]-benzoic acid], the Ki is over 50 µM at Carboxypeptidase A and over 50 µM on ACE (Sigma, A2580).

Consider `CC(C)C[C@H](NC(CCc1ccccc1)C(=O)O)C(=O)O` (some centres unmarked) [C, 2-(1-Carboxy-3-phenyl-propylamino)-4-methyl-pentanoic acid], for which the Ki on ACE (Sigma, A2580) was over 50 µM; on ACE-2, over 0.5 µM.

Regarding `CC(C)CC(N[C@H](Cc1cn(Cc2ccccc2)cn1)C(=O)O)C(=O)O` (some centres unmarked) [CX, 2-[2-(1-Benzyl-1H-imidazol-4-yl)-1-carboxy-ethylamino]-4-methyl-pentanoic acid], the Ki at Carboxypeptidase A is over 50 µM; on ACE (Sigma, A2580) it was 10 to 50 µM.

Regarding `CC(C)C[C@H](N[C@@H](CCc1ccccc1)C(=O)O)C(=O)O` [D, 2-(1-Carboxy-3-phenyl-propylamino)-4-methyl-pentanoic acid], the Ki is over 50 µM on ACE (Sigma, A2580) and over 0.5 µM on ACE-2.

As for `CC(CS)C(=O)O` (centres unmarked) [G, 3-Mercapto-2-methyl-propionic acid], the Ki at ACE (Sigma, A2580) was over 50 µM; at ACE-2, over 0.5 µM.
